In ChEMBL document CHEMBL3045922, “Synthesis of 6-(3-substituted-4H-1,2,4-triazol-4-yl)-2-phenylbenzo[d]oxazoles as potential anticonvulsant agents” (Med Chem Res, 2010):
The source made the active and inactive calls. The rule behind the calls is not given here.

What was measured:
Mus musculus [1] = assay: Anticonvulsant activity in Mus musculus Kunming (mouse) assessed as protection against subcutaneous pentylenetetrazole-induced seizures at 100 mg/kg, ip at 4 hr; format: functional, organism-based; parameters: dose 100 mg/kg
Mus musculus [2] = assay: Anticonvulsant activity in Mus musculus Kunming (mouse) assessed as protection against maximal electroshock-induced seizures at 100 mg/kg, ip at 4 hr; format: functional, organism-based; parameters: dose 100 mg/kg
Mus musculus [3] = assay: Neurotoxicity in Mus musculus Kunming (mouse) assessed as minimal motor impairment at 300 mg/kg, ip at 4 hr by rotarod test; format: toxicity, organism-based; parameters: dose 300 mg/kg, route intraperitoneal; settings: in vivo
Mus musculus [4] = assay: Neurotoxicity in Mus musculus Kunming (mouse) assessed as minimal motor impairment at 300 mg/kg, ip at 0.5 hr by rotarod test; format: toxicity, organism-based; parameters: dose 300 mg/kg, route intraperitoneal; settings: in vivo
Mus musculus [5] = assay: Anticonvulsant activity in Mus musculus Kunming (mouse) assessed as protection against maximal electroshock-induced seizures at 100 mg/kg, ip at 0.5 hr; format: functional, organism-based; parameters: dose 100 mg/kg
Mus musculus [6] = assay: Anticonvulsant activity in Mus musculus Kunming (mouse) assessed as protection against subcutaneous pentylenetetrazole-induced seizures at 100 mg/kg, ip at 0.5 hr; format: functional, organism-based; parameters: dose 100 mg/kg
Mus musculus [7] = assay: Protective index, ratio of TD50 for Mus musculus Kunming (mouse) to ED50 for inhibition of maximal subcutaneous pentylenetetrazole-induced seizure in Mus musculus Kunming (mouse); format: functional
[8] = Neurotoxicity in ip dosed Mus musculus Kunming (mouse) assessed as minimal motor impairment at 0.5 hr by rotarod test; format: toxicity, organism-based; settings: in vivo
Mus musculus [9] = assay: Anticonvulsant activity in ip dosed Mus musculus Kunming (mouse) assessed as protection against subcutaneous pentylenetetrazole-induced seizures at 0.5 hr; format: functional
Mus musculus [10] = assay: Anticonvulsant activity in ip dosed Mus musculus Kunming (mouse) assessed as protection against maximal electroshock-induced seizures at 0.5 hr; format: functional
Mus musculus [11] = species on record: Mus musculus; assay: Protective index, ratio of TD50 for Mus musculus Kunming (mouse) to ED50 for inhibition of maximal electroshock-induced seizure in Mus musculus Kunming (mouse); format: functional

Clc1cccc(-c2nncn2-c2ccc3nc(-c4ccccc4)oc3c2)c1
Activity (Mus musculus [1]): inactive
Activity (Mus musculus [2]): inactive
Activity (Mus musculus [3]): Non-toxic
Activity (Mus musculus [4]): Toxic

CCCCCCCCCc1nncn1-c1ccc2nc(-c3ccccc3)oc2c1
Activity (Mus musculus [1]): inactive
Activity (Mus musculus [2]): inactive
Activity (Mus musculus [3]): Toxic
Activity (Mus musculus [5]): inactive
Activity (Mus musculus [4]): Toxic

CCCc1nncn1-c1ccc2nc(-c3ccccc3)oc2c1
Activity (Mus musculus [1]): inactive
Activity (Mus musculus [2]): inactive
Activity (Mus musculus [3]): Non-toxic

CCc1nncn1-c1ccc2nc(-c3ccccc3)oc2c1
Activity (Mus musculus [1]): inactive
Activity (Mus musculus [3]): Non-toxic

Fc1cccc(-c2nncn2-c2ccc3nc(-c4ccccc4)oc3c2)c1
Activity (Mus musculus [1]): inactive
Activity (Mus musculus [6]): inactive
Activity (Mus musculus [2]): inactive
Activity (Mus musculus [3]): Non-toxic
Activity (Mus musculus [4]): Non-toxic

CCCCCc1nncn1-c1ccc2nc(-c3ccccc3)oc2c1
Activity (Mus musculus [1]): inactive
Activity (Mus musculus [6]): inactive
Activity (Mus musculus [2]): inactive
Activity (Mus musculus [5]): inactive

Cc1nncn1-c1ccc2nc(-c3ccccc3)oc2c1
Ratio TD50/ED50 (Mus musculus [7]): 2.3
Activity (Mus musculus [1]): inactive
TD50 at 0.5 h [8]: 167 mg/kg
ED50 (Mus musculus [9]): 75.6 mg/kg
Activity (Mus musculus [2]): Active
ED50 (Mus musculus [10]): 26.5 mg/kg
Ratio TD50/ED50 (Mus musculus [11]): 6.3
Activity (Mus musculus [5]): Active
Activity (Mus musculus [4]): Toxic

COc1ccc(-c2nncn2-c2ccc3nc(-c4ccccc4)oc3c2)cc1
Activity (Mus musculus [1]): inactive
Activity (Mus musculus [6]): inactive
Activity (Mus musculus [2]): inactive
Activity (Mus musculus [3]): Non-toxic
Activity (Mus musculus [4]): Non-toxic

O=[N+]([O-])c1ccc(-c2nncn2-c2ccc3nc(-c4ccccc4)oc3c2)cc1
Activity (Mus musculus [1]): inactive
Activity (Mus musculus [6]): inactive
Activity (Mus musculus [2]): inactive
Activity (Mus musculus [5]): inactive

Cc1ccc(-c2nncn2-c2ccc3nc(-c4ccccc4)oc3c2)cc1
Activity (Mus musculus [1]): inactive
Activity (Mus musculus [2]): inactive
Activity (Mus musculus [4]): Toxic

NC(=O)N1c2ccccc2C=Cc2ccccc21 [CARBAMAZEPINE]
Ratio TD50/ED50 (Mus musculus [7]): <1.3
ED50 (Mus musculus [9]): > 100 mg/kg
Ratio TD50/ED50 (Mus musculus [11]): 6.4

CCCCc1nncn1-c1ccc2nc(-c3ccccc3)oc2c1
Activity (Mus musculus [1]): inactive
Activity (Mus musculus [2]): inactive
Activity (Mus musculus [3]): Non-toxic
Activity (Mus musculus [4]): Non-toxic

c1ccc(-c2nc3ccc(-n4cnnc4-c4ccccc4)cc3o2)cc1
Activity (Mus musculus [1]): inactive
TD50 at 0.5 h [8]: 266 mg/kg
ED50 (Mus musculus [10]): 65.4 mg/kg
Ratio TD50/ED50 (Mus musculus [11]): 4.1
Activity (Mus musculus [5]): Active

Clc1ccc(-c2nncn2-c2ccc3nc(-c4ccccc4)oc3c2)cc1
Activity (Mus musculus [1]): inactive
Activity (Mus musculus [6]): inactive
Activity (Mus musculus [2]): inactive
Activity (Mus musculus [3]): Non-toxic
Activity (Mus musculus [4]): Non-toxic

COc1cccc(-c2nncn2-c2ccc3nc(-c4ccccc4)oc3c2)c1
Activity (Mus musculus [1]): inactive
TD50 at 0.5 h [8]: 249 mg/kg
Activity (Mus musculus [6]): inactive
Activity (Mus musculus [2]): inactive
Activity (Mus musculus [3]): Non-toxic
ED50 (Mus musculus [10]): 66.5 mg/kg
Ratio TD50/ED50 (Mus musculus [11]): 3.7
Activity (Mus musculus [5]): Active

c1ccc(-c2nc3ccc(-n4cnnc4)cc3o2)cc1
Ratio TD50/ED50 (Mus musculus [7]): 4.1
Activity (Mus musculus [1]): inactive
TD50 at 0.5 h [8]: 285 mg/kg
Activity (Mus musculus [6]): inactive
ED50 (Mus musculus [9]): 69.8 mg/kg
Activity (Mus musculus [2]): Active
Activity (Mus musculus [3]): Non-toxic
ED50 (Mus musculus [10]): 29.5 mg/kg
Ratio TD50/ED50 (Mus musculus [11]): 9.7
Activity (Mus musculus [5]): Active

Fc1ccc(-c2nncn2-c2ccc3nc(-c4ccccc4)oc3c2)cc1
Activity (Mus musculus [1]): inactive
Activity (Mus musculus [6]): inactive
Activity (Mus musculus [2]): inactive
Activity (Mus musculus [3]): Non-toxic
Activity (Mus musculus [4]): Non-toxic

Clc1ccccc1-c1nncn1-c1ccc2nc(-c3ccccc3)oc2c1
Activity (Mus musculus [1]): inactive
Activity (Mus musculus [2]): inactive
Activity (Mus musculus [3]): Non-toxic
Activity (Mus musculus [5]): inactive
Activity (Mus musculus [4]): Non-toxic
